What all share (type): functional, cell-based
Experiment [1] has as its system A549. Kind of experiment: Cytotoxicity against human A549 cells assessed as reduction in cell viability after 24 hrs by MTT assay. Particulars: A549, 24 h.
The subject of experiment [2] is MDA-MB-231. Kind of experiment: Cytotoxicity against human MDA-MB-231 cells assessed as reduction in cell viability after 24 hrs by MTT assay.
In experiment [3] the test system is A549. Kind of experiment: Anticancer activity against human A549 cells by MTT assay.
For experiment [4], the system named is A549. Kind of experiment: Cytotoxicity against human A549 cells assessed as reduction in cell viability after 68 hrs by MTT assay. Particulars: A549, 68 h.
For experiment [5], the system named is K562. Kind of experiment: Cytotoxicity against human K562 cells assessed as reduction in cell viability after 68 hrs by MTT assay. Particulars: K562, 68 h.
Experiment [6] concerns MCF7. Kind of experiment: Cytotoxicity against human MCF7 cells assessed as reduction in cell viability after 68 hrs by MTT assay. The following applies: MCF7, 68 h.
Experiment [7] deals with HeLa. Kind of experiment: Cytotoxicity against human HeLa cells assessed as reduction in cell viability after 68 hrs by MTT assay.
Experiment [8] concerns MCF7. Kind of experiment: Cytotoxicity against human MCF7 cells assessed as reduction in cell viability after 48 hrs by MTT assay. The following applies: MCF7, 48 h.
The test system of experiment [9] is HepG2. Kind of experiment: Anticancer activity against human HepG2 cells by MTT assay.
In experiment [10] the test system is MDA-MB-231. Kind of experiment: Anticancer activity against human MDA-MB-231 cells by MTT assay.
Experiment [11] relates to 769-P. Kind of experiment: Anticancer activity against human 769-P cells by MTT assay.

Data on 28 compounds can be found in ChEMBL document CHEMBL4373717, “Coumarin-containing hybrids and their anticancer activities” (Eur J Med Chem, 2019).

Turning to `Cc1ccccc1-c1cc(-c2cc3ccccc3oc2=O)nc(Cc2ccc(F)cc2)n1`, the IC50 was 2.15 to 28.6 µM in [1] and 2.15 to 28.6 µM in experiment [2] (Homo sapiens, MDA-MB-231, 24 h).

As to `CC(=O)O[C@H]1C(=O)[C@@]2(C)[C@H]([C@H](OC(=O)c3ccccc3)[C@]3(O)C[C@H](OC(=O)[C@H](O)[C@@H](NC(=O)c4ccccc4)c4ccccc4)C(C)=C1C3(C)C)[C@]1(OC(C)=O)CO[C@@H]1C[C@@H]2O` [PACLITAXEL], the IC50 in experiment [3] is 0.35 µM; in experiment [4], 0.0033 to 0.014 µM; in experiment [5] it was 0.0033 to 0.014 µM; in experiment [6], 0.0033 to 0.014 µM; in [7], 0.0033 to 0.014 µM.

Take `COc1ccccc1NC(=O)Nc1ccc(Cc2c(C)c3cc(C(C)(C)C)c(O)cc3oc2=O)cn1`: the IC50 in experiment [4], in experiment [5], in experiment [6] and in experiment [7] was 1.66 to 19.4 µM in each case.

As for `Cc1ccc(NC(=O)Nc2ccc(Cc3c(C)c4cc(C(C)(C)C)c(O)cc4oc3=O)cn2)cc1C`, the IC50 in experiment [4], in experiment [5], in experiment [6] and in experiment [7] was 1.66 to 19.4 µM in each case.

Consider `COc1ccc(-c2csc(-n3nc(C)cc3-c3cc4ccccc4oc3=O)n2)cc1`, for which, in [8], the IC50 lay in the range of 4.03 to 31.5 µM.

Consider `O=c1oc2ccccc2cc1-c1cc(-c2ccccc2Cl)nc(Cc2ccc(F)cc2)n1`, for which the IC50 in experiment [1] was 2.15 to 28.6 µM; in experiment [2] (Homo sapiens, MDA-MB-231, 24 h) it was 2.15 to 28.6 µM.

For `Cc1cc(=O)oc2cc(OCc3cn(CCCCCCCCCOc4ccc5ccc(=O)oc5c4)nn3)ccc12`, the IC50 in experiment [9], in [10] and in experiment [11] was 0.383 to 13.6 µM each time.

`O=c1ccc2ccc(OCCCCCCn3cc(COc4ccc5ccc(=O)oc5c4)nn3)cc2o1`: the IC50 in experiment [9], in [10] and in experiment [11] was 0.383 to 13.6 µM throughout.

As for `O=c1oc2ccccc2cc1-c1cc(-c2cccc(Cl)c2)nc(Cc2ccc(F)cc2)n1`, the IC50 in [1] fell in the range of 2.15 to 28.6 µM; in experiment [2] (Homo sapiens, MDA-MB-231, 24 h), 2.15 to 28.6 µM.

Consider `O=c1oc2ccccc2cc1-c1cc(-c2ccccc2Br)nc(Cc2ccc(F)cc2)n1`, for which the IC50 in experiment [1] was in the range of 2.15 to 28.6 µM; in experiment [2] (Homo sapiens, MDA-MB-231, 24 h), 2.15 to 28.6 µM.

Take `COC(=O)c1cccc(NC(=O)c2ccc(-n3cc(COc4cc(=O)oc5ccccc45)nn3)cc2)c1`: the IC50 in [2] (mda-mb-231) was 0.03 to 91.6 µM.

Turning to `Cc1c(Cc2ccc(NC(=O)Nc3ccc(F)c(Cl)c3)nc2)c(=O)oc2cc(O)c(C(C)(C)C)cc12`, the IC50 in [4], in experiment [5], in experiment [6] and in [7] was 1.66 to 19.4 µM each time.

With `O=C(O)c1c(-c2cc3cc(Cl)ccc3oc2=O)[nH]c2ccccc12`, the IC50 in experiment [8] was in the range of 5.5 to 100 µM.

Regarding `CCOc1cc(Br)cc2c1OCC([N+](=O)[O-])=C2`, the IC50 in experiment [4], in experiment [5], in [6] and in [7] was 0.95 to 6.43 µM throughout.

In the case of `COc1ccc(OC)c(NC(=O)c2ccc(-n3cc(COc4cc(=O)oc5ccccc45)nn3)cc2)c1`, the IC50 in experiment [2] (mda-mb-231) lay in the range of 0.03 to 91.6 µM.

`COc1cccc(-c2cc(-c3cc4ccccc4oc3=O)nc(Cc3ccc(F)cc3)n2)c1`: the IC50 is 2.15 to 28.6 µM in experiment [1] and 2.15 to 28.6 µM in experiment [2] (Homo sapiens, MDA-MB-231, 24 h).

As for `CCc1ccccc1NC(=O)c1ccc(-n2cc(COc3cc(=O)oc4ccccc34)nn2)cc1`, in [2] (mda-mb-231), the IC50 fell in the range of 0.03 to 91.6 µM.

Take `O=c1ccc2ccc(OCCCCCCCn3cc(COc4ccc5ccc(=O)oc5c4)nn3)cc2o1`: the IC50 in experiment [9], in experiment [10] and in experiment [11] was 0.383 to 13.6 µM throughout.

In the case of `Cc1ccc(-c2cc(-c3cc4ccccc4oc3=O)nc(Cc3ccc(F)cc3)n2)cc1`, the IC50 lay in the range of 2.15 to 28.6 µM in [1] and 2.15 to 28.6 µM in [2] (Homo sapiens, MDA-MB-231, 24 h).

Turning to `Cc1cc(=O)oc2cc(OCc3cn(CCOc4ccc5ccc(=O)oc5c4)nn3)ccc12`, the IC50 in [9], in [10] and in [11] was 0.383 to 13.6 µM throughout.

`Cc1cccc(C)c1NC(=O)c1ccc(-n2cc(COc3cc(=O)oc4ccccc34)nn2)cc1`: the IC50 in experiment [2] (mda-mb-231) was 0.03 to 91.6 µM.

For the compound `Cc1ccc(NC(=O)c2ccc(-n3cc(COc4cc(=O)oc5ccccc45)nn3)cc2)c(C)c1`, the IC50 in [2] (mda-mb-231) was in the range of 0.03 to 91.6 µM.

Regarding `O=c1ccc2ccc(OCCCCCCCCCn3cc(COc4ccc5ccc(=O)oc5c4)nn3)cc2o1`, the IC50 in experiment [9], in experiment [10] and in [11] was 0.383 to 13.6 µM throughout.

Take `COc1ccc(-c2cc(-c3cc4ccccc4oc3=O)nc(Cc3ccc(F)cc3)n2)cc1`: the IC50 amounted to 2.23 µM in [1] and 2.23 µM in experiment [2] (Homo sapiens, MDA-MB-231, 24 h).

Turning to `Cc1cc(-c2cc3ccccc3oc2=O)n(-c2nc(-c3ccccc3)cs2)n1`, the IC50 in [8] was 4.03 to 31.5 µM.

`Cc1cc(-c2cc3cc(Br)ccc3oc2=O)n(-c2nc(-c3ccc(Br)cc3)cs2)n1`: the IC50 in experiment [8] was in the range of 4.03 to 31.5 µM.

Turning to `O=Cc1c(-c2cc3cc(Br)ccc3oc2=O)[nH]c2ccccc12`, the IC50 in experiment [8] fell in the range of 5.5 to 100 µM.

Regarding `O=C(Nc1ccccc1Br)c1ccc(-n2cc(COc3cc(=O)oc4ccccc34)nn2)cc1`, the IC50 in experiment [2] (mda-mb-231) fell in the range of 0.03 to 91.6 µM.
